The record followed here is US10111902B2, “Polymers for reversing heparin-based anticoagulation” (University of British Columbia, priority 2011, dated 2018).

Data set [1] has as its system UFH. In words: Anti Xa neutralization of UFH in platelet poor plasma. The class given is biochemical, human. Conditions: One IU UFH per ml in platelet poor plasma. As to the method: Both JNK-1 and JNK-2 result in greater neutralization of unfractionated heparin at two doses (50 and 100 μg/ml), Tinzaparin (LMWH) and Enoxaparin (LMWH).
The test system of the next data set is LMWH Enoxaparin. Nature of the data set: APTT assay, neutralization of LMWH Enoxaparin in citrate plasma. Type of data set: biochemical, human. Conditions: Enoxaparin 2.0 U/ml or 1.14 IU/mL, 0.001 to 0.25 mg/ml. As to the method: Citrate plasma was anticoagulated with 2.0 U/ml UFH, Enoxaparin and Tinzaparin and was treated with different concentrations of the HBSPCM polymers and protamine (0.001 to 0.25 mg/ml). The APTT was measured for each sample.
Citrate plasma was anticoagulated with UFH (2.0 IU/mL), Enoxaparin (2.0 IU/mL) and Tinzaparin (1.14 IU/mL) and was titrated with different concentrations of the HBSPCM polymers and protamine (0.001 to 0.25 mg/ml). The APTT was measured for each sample.
Ability of HBSPCM polymers JNK-9, JNK-10 and JNK-11 was studied for the range of concentration from 0.01 to 0.25 mg/mL prepared in 0.15 M saline. Citrated blood was spun at 3000 RPM for 10 min to obtain platelet poor plasma (PPP). The PPP was then heparinized by adding 45 μL of heparin (UFH, LMWH etc.) to 2200 μL of PPP final concentration of 2.0 IU/mL for UFH and Tinzaparin and 1.14 IU/mL for Enoxaparin. Normal control was prepared by adding 25 μL of 0.15 M saline to 250 μL of PPP. 25 μL of each antidote solution (polymer or protamine) was added to 225 μL of heparinized PPP. 250 μL of APTT reagent (actin FSL) was then added and samples were incubated for 3 min at 37° C. 250 μL of normal control was combined with 250 μL of APTT reagent and also incubated for 3 min. 50 μL of 0.025M CaCl2 was added to 100 μL aliquots of normal control and sample (in triplicate). […]

Data set [2] has as its system UFH. Nature of the data set: Thromboelastography (TEG), neutralization of UFH in whole blood. Type of data set: cell-based. Conditions: human whole blood, UFH 0.5 U/ml, re-calcified at 37° C. How it is done: This example examines thromboelastography in the presence of various heparin binders. Thromboelastography (TEG) provides an in vitro method for monitoring of the evolution of the viscoelastic properties and coagulation kinetics of blood as clotting proceeds. The principle components of the TEG are a cylindrical cup and a bob suspended in the cup from a weak torsion wire. The warmed cup oscillates over a 10 second period through an angle of 4° 45′. Blood is added and a torque is transmitted to the bob as the gel forms. The rate of clot formation, the strength of the clot, and the rate of clot lysis are reflected in the shape traced out by the maxima in the bob oscillation as a function of time (the trace of the TEG). […]
(§1) To carry out TEG experiments, citrate anti-coagulated whole blood with heparin or heparin derivatives added are incubated with buffered HBSPCM polymers (sodium citrate or saline) for 1 minute before recalcification at 37° C. Clot formation kinetics are monitored in a TEG machine (350 μl whole blood+35 μl polymer or control solution) at 37° C.
The coagulation time (FIG. 7A) and maximum clot strength, or maximum amplitude (MA) (FIG. 7B) are shown. Citrated whole blood was added to UFH or Tinzaparin (0.5 U/ml) and re-calcified at 37° C. in a TEG cup and monitored using a TEG machine. […]

Another data set concerns LMWH Tinzaparin. In words: Thromboelastography (TEG), neutralization of LMWH Tinzaparin in whole blood. Type of data set: cell-based. To be noted: human whole blood; for clot strength (maximum amplitude, MA) with Tinzaparin: antidote at higher concentration (0.25 mg/ml). As to the method:
This example examines thromboelastography in the presence of various heparin binders. Thromboelastography (TEG) provides an in vitro method for monitoring of the evolution of the viscoelastic properties and coagulation kinetics of blood as clotting proceeds. The principle components of the TEG are a cylindrical cup and a bob suspended in the cup from a weak torsion wire. The warmed cup oscillates over a 10 second period through an angle of 4° 45′. Blood is added and a torque is transmitted to the bob as the gel forms. The rate of clot formation, the strength of the clot, and the rate of clot lysis are reflected in the shape traced out by the maxima in the bob oscillation as a function of time (the trace of the TEG). The clot's physical properties, i.e. rate of clot formation, clot strength, and stability are dependent on the interaction of fibrinogen, platelets, and plasma proteins. TEG studies yield the cumulative effect of several components of coagulation (global homeostasis) as a function of time.
as §1
The coagulation time (FIG. 7A) and maximum clot strength, or maximum amplitude (MA) (FIG. 7B) are shown. Citrated whole blood was added to UFH or Tinzaparin (0.5 U/ml) and re-calcified at 37° C. in a TEG cup and monitored using a TEG machine. JNK-1 polymers or protamine at different concentrations were used as neutralizing agents.

The test system of the next data set is platelets. In words: Platelet activation of 23 kDa HBSPCM polymers (CD62-PE, flow cytometry). Type of data set: cell-based. Conditions: PRP, 0.5 mg/mL, 1 h, 37° C. How it is done:
The level of platelet activation was quantified by flow cytometry. Ninety microliter of PRP was incubated at 37° C. with 10 μL of 5 mg/mL of polymer or protamine (final concentration 0.5 mg/mL). After 1 h, aliquots of the incubation mixtures were removed for assessment of the platelet activation state. Five microliter of post-incubation platelet/polymer or protamine mixture, diluted in HEPES buffer, was incubated for 20 minutes in the dark with 5 μL of monoclonal anti-CD62-PE (Immunotech). The samples were then stopped with 0.5 mL of phosphate-buffered saline solution. The level of platelet activation was analyzed in a BD FACSCanto II flow cytometer (Becton Dickinson) by gating platelets specific events based on their FITC-CD42 fluorescence and light scattering profile. Activation of platelets was expressed as the percentage of platelet activation marker CD62-PE fluorescence detected in the 10,000 total events counted. Duplicate measurements were done, the mean of which was reported. Controls were done for the flow cytometric analysis. One U/ml of bovine thrombin (Sigma) was used as a positive control, and PE conjugated goat anti-mouse IgG polyclonal antibodies (Immunotech) was used as the non-specific binding control.

The next data set relates to blood coagulation. In words: Blood coagulation: PT and APTT in platelet poor plasma. The class given is biochemical, human. To be noted: FIG. 15, compared to saline. How it is done:
The present example examines blood coagulation in the presence of a heparin binding polymer. JNK-1 polymers were tested for blood compatibility using the activated partial thromboplastin time (APTT) and the prothrombin time (PT) in fresh human plasma. PT can be used to evaluate the extrinsic and common coagulation pathway and the results are expressed in seconds required for a fibrin clot to form after tissue thromboplastin (innovin) has been added to the blood sample. APTT is used to evaluate the intrinsic and common coagulation pathway. The results are expressed in seconds required for a fibrin clot to form in the plasma sample after a partial thromboplastin reagent (actin) and calcium chloride have been added to the sample. Blood was mixed with a measured amount of citrate and the plasma was obtained by centrifugation, using methods known in the art.
A final JNK-1 concentration of 10 mg/ml is used at in a 9:1 dilution of plasma at 37° C. Control experiments were done adding identical volumes of saline solution. JNK-1 polymer solutions were incubated with platelet poor plasma for 5 minutes at 37° C. before adding PT and APTT reagents.
Blood coagulation is measured using APTT.

For the substance protamine, the “Anti Xa Neutralization (%) of UFH at 50 μg/ml” value in the data set on UFH [1] (50 μg/ml) came out at 84%. In addition, the “Anti Xa Neutralization (%) of UFH at 100 μg/ml” value with UFH [1] (100 μg/ml) was 85 ± 0%. The “LMWH Enoxaparin neutralization (APTT)” value with LMWH Enoxaparin was “neutralizes UFH and LMWH only in the narrow concentration range”. Moreover, in the data set on UFH [2], the “UFH neutralization (TEG: coagulation time, clot strength)” value is “not effective at neutralizing UFH or LMWH Tinzaparin and Enoxaparin in terms of the time to clot formation”. In addition, the “LMWH Tinzaparin neutralization (TEG: coagulation time, clot strength)” value in the data set with LMWH Tinzaparin (Tinzaparin 0.5 U/ml, re-calcified at 37° C) was “not effective at neutralizing UFH or LMWH Tinzaparin and Enoxaparin in terms of the time to clot formation”. Moreover, the “clot strength (maximum amplitude, MA) with Tinzaparin” value in the data set on LMWH Tinzaparin is listed as “did not form a stable clot”; with LMWH Tinzaparin (listed as protamine), “not at all at a high dose”. For the same substance, the “platelet activation (CD62-PE)” value with platelets is given as “significant levels of platelet activation”. The “blood coagulation (APTT biocompatibility)” value in the data set on blood coagulation is recorded as “different blood coagulation profile”.
